Here are results for one compound from patent US12419837B2, “Liposomal composition containing mild acidic active agent” (TAIWAN LIPOSOME COMPANY, LTD., priority 2016, dated 2025).

The nature of one data set: Solubility. To be noted: PGE1 as API. Type of data set: physicochemical.
The conditions of data set [1]: cited from earlier work.

Where two headings read alike, the source gives them in different places.

On to `CCCCC[C@H](O)/C=C/[C@H]1[C@H](O)CC(=O)[C@@H]1CCCCCCC(=O)O` [PGE1, Prostaglandin E1], for which, in “Solubility”, the “solubility in tert-Butyl alcohol (TBA)” value is “soluble” and the solubility in water result is on record as “water-insoluble”. Besides, the “half life in human body” value in data set [1] (human body (b5)) is “about 30 seconds”. Moreover, the “half life in human body” value in data set [1] (human body) is 0.5 min and 10 min.
